Laboratory results from patent US11485744B2, “High penetration prodrug compositions of antimicrobials and antimicrobial-related compounds” (priority 2009, dated 2022).
Converted amounts (≈) assume the structure as drawn. Where two headings read alike, the source gives them in different places.

How the values were obtained:
[1] = tested on: E. faecalis; experiment: MIC against E. faecalis; assay type: cell-based; settings: Table 6c; for MIC: Enterococcus faecalis
[2] = tested on: S. aureus; experiment: MIC against S. aureus; settings: for MIC, S. aureus: Table 6c; for MIC: Staphylococcus aureus, read-out: MIC, S. aureus
Procedure: (§2) Minimum inhibitory concentrations (MICs) of the antimicrobials and their pro-drugs were assessed according to Jennifer M. Andrews, Journal of Antimicrobial Chemotherapy 48, suppl.

[3] = In vitro penetration across isolated human skin in modified Franz cells; settings: pH 7.4
Procedure: Penetration rates of HPPs and their parent drugs through human skin were measured in vitro by modified Franz cells. A Franz cell had two chambers, the top sample chamber and the bottom receiving chamber. The human skin tissue (360-400 μm thick) that separated the top and the receiving chambers was isolated from the anterior or posterior thigh areas.
A test compound (2 mL, 10% in 0.2 M phosphate buffer, pH 7.4) was added to the sample chamber of a Franz cell. The receiving chamber contained 10 ml of 0.2 M phosphate buffer which was stirred at 600 rpm. The amount of the tested compound penetrating the skin was determined by high-performance liquid chromatography (HPLC) method.

[4] = tested on: E. coli; experiment: MIC against E. coli; settings: for MIC, E. coli: Table 6c; for MIC: Escherichia coli, read-out: MIC, E. coli
Procedure: as §2

[5] = Conversion of HPPs to parent drugs in human plasma (half life); assay type: in vitro ADME; settings: for half-life at 9.1 mg/mL: pH 7.4
Procedure: HPPs of antimicrobials or antimicrobial-related compounds converted to the parent antimicrobials or antimicrobial-related compounds quickly in good yield in human plasma.
A HPP of antimicrobial or antimicrobial-related compound (10 mg) was dissolved in 0.1 ml of 0.2M pH 7.4 phosphate buffer. 1 ml of human plasma, preheated to 37° C., was added into the mixture. The mixture was kept in a water bath at 37° C., and at every 2 min intervals 0.2 ml of samples were withdrawn and added to 0.4 ml of methanol to precipitate the plasma protein.

[6] = mouse, in vivo
Procedure: In vivo rates of penetration of HPPs of beta-lactam antibiotics through skin and blood-brain barrier of intact hairless mice were studied. […] After 2 hours, the mice were killed. 5 ml of methanol was added to 1 g of homogenized blood, liver, kidney, muscle, or brain. The samples were centrifuged for 5 min and analyzed by HPLC (Table 2).

[7] = tested on: methicillin-resistant Staphylococcus aureus (MRSA); experiment: MIC against MRSA; assay type: cell-based; settings: Table 6a
[8] = tested on: Candida albicans; experiment: Antifungal MIC in vitro; assay type: cell-based
[9] = tested on: E. coli; experiment: Bacteriological cure of cow mastitis, topical treatment; assay type: in vivo; settings: cows, day 22, topical 500 mg twice per day
Procedure: (§1) 90 lactating dairy cows were recruited. Bacteriological cure was considered to have been achieved if the samples taken from the affected quarter on day 17 and day 22 were free of the bacterial species isolated in the pretreatment sample. Clinical cure was defined as the disappearance of clinical signs of disease which were observed on day 1 before treatment, in other words by the return to normal feed intake, rectal temperature<39.0° C., good general condition, absence of udder edema, normal milk appearance, and normal milk yield.

[10] = tested on: Enterobacteriaceae; experiment: as above; assay type: in vivo; settings: cows, day 22, topical 500 mg twice per day
Procedure: as §1

[11] = tested on: Streptococcus uberis; experiment: as above; assay type: in vivo; settings: cows, day 22, topical 500 mg twice per day
Procedure: as §1

[12] = tested on: Staphylococcus aureus; experiment: as above; assay type: in vivo; settings: cows, day 22, topical 500 mg twice per day
Procedure: as §1

[13] = tested on: Coagulase-negative staphylococci; experiment: as above; assay type: in vivo; settings: cows, day 22, topical 500 mg twice per day
Procedure: as §1

[14] = tested on: Microsporum canis; experiment: Antifungal MIC in vitro; assay type: cell-based
[15] = tested on: Trichophyton mentagrophytes; experiment: Antifungal MIC in vitro; assay type: cell-based
[16] = tested on: Fusarium oxisporum; experiment: Antifungal MIC in vitro; assay type: cell-based
[17] = Clinical cure of cow mastitis, topical treatment; assay type: in vivo, lactating dairy cows; settings: cows, 500 mg in 10 ml pH 7.4 phosphate buffer sprayed on skin of udder twice per day
Procedure: as §1

[18] = tested on: Aspergillus tereus; experiment: Antifungal MIC in vitro; assay type: cell-based
[19] = tested on: Aspergillus niger; experiment: Antifungal MIC in vitro; assay type: cell-based
[20] = tested on: Aspergillus nidulans; experiment: Antifungal MIC in vitro; assay type: cell-based
[21] = tested on: Penicillium carylophilium; experiment: Antifungal MIC in vitro; assay type: cell-based
[22] = tested on: Aspergillus giganteus; experiment: Antifungal MIC in vitro; assay type: cell-based
[23] = tested on: Fusarium aquaductum; experiment: Antifungal MIC in vitro; assay type: cell-based
[24] = Staphylococcus aureus, MRSA, read-out: MIC

With `CCCCOC(=O)c1cn(C2CC2)c2cc(N3CCNCC3)c(F)cc2c1=O.Cl` [ciprofloxacin-BE, 1-cyclopropyl-6-fluoro-4-oxo-7-piperazin-1-yl-quinoline-3-carboxylic acid butyl ester•HCl salt] the “MIC, E. faecalis” value [1] was 0.05 mg/L, the “MIC, S. aureus” value [2] was 5 mg/L and the “In vitro Penetration Rate (apparent flux), HPPs of sulfonamides, sulfones, quinolones” value [3] was 0.29 ± 0.02 mg/cm^2/h. The “MIC, E. coli” value [4] was 0.2 mg/L.
For `CCN(CC)CCOC(=O)C1N2C(=O)C(NC(=O)c3c(-c4ccccc4Cl)noc3C)C2SC1(C)C.Cl` (centres unmarked) [6-[3-(o-chlorophenyl)-5-methyl-4-isoxazolecarboxamido]penicillinic acid 2-diethylaminoethyl ester hydrochloride], the “Half life of HPPs in plasma” value ([5]; human, plasma) was 8 ± 1 min, the “Amount of parent drug found in Blood” value [6] was 25 ± 8 µg/g and the “Amount of parent drug found in Brain” value [6] was 9 ± 5 µg/g. For the same molecule, the “Amount of parent drug found in Kidney” value [6] was 12 ± 7 µg/g, the “Amount of parent drug found in Liver” value [6] was 14 ± 6 µg/g and the “Amount of parent drug found in Muscel” value [6] was 20 ± 7 µg/g.
With `Cc1onc(-c2ccccc2)c1C(=O)N[C@@H]1C(=O)N2[C@@H]1SC(C)(C)[C@@H]2C(=O)O` [Oxacillin, reference compound] the “In vitro Penetration Rate (apparent flux), Parent compounds” value ([3]; human, 10 %) was <0.001 mg/cm^2/h and the “drug detected in blood, liver, kidney, muscle or brain of mice treated with only the parent drug” value [6] was “No drug was detected”.
In the case of `COc1cccc(OC)c1C(=O)N[C@@H]1C(=O)N2[C@@H]1SC(C)(C)[C@@H]2C(=O)O` [Methicillin, reference compound], the “In vitro Penetration Rate (apparent flux), Parent compounds” value ([3]; human, 10 %) is reported as <0.001 mg/cm^2/h and the MIC [7, 24] is reported as 2160 mg/L (≈ 5670 µM).
`Cc1noc(NS(=O)(=O)c2ccc(N)cc2)c1C` [Sulfisoxazole] gave an MIC [1] of 55 µg/mL (≈ 206 µM), an MIC [2] of 64 µg/mL (≈ 239 µM) and an MIC [4] of 16 µg/mL (≈ 59.9 µM).
Molecule `O=C(O)c1cn(C2CC2)c2cc(N3CCNCC3)c(F)cc2c1=O` [Ciprofloxacin, 1-cyclopropyl-6-fluoro-4-oxo-7-piperazin-1-yl-quinoline-3-carboxylic acid] has an MIC [1] of 2 µg/mL (≈ 6.04 µM), an MIC [2] of 128 µg/mL (≈ 386 µM) and an MIC [4] of 10 µg/mL (≈ 30.2 µM).
`CCn1cc(C(=O)O)c(=O)c2ccc(C)nc21` [nalidixic acid, 1-ethyl-7-methyl-4-oxo-[1,8]naphthyridine-3-carboxylic acid] gave an MIC [1] of 64 µg/mL (≈ 276 µM), an MIC [2] of 158 µg/mL (≈ 680 µM) and an MIC [4] of 6 µg/mL (≈ 25.8 µM).
For `CCN(CC)CCOC(=O)C1=C(COC)CSC2C(NC(=O)/C(=N\OC)c3csc(NC(C)=O)n3)C(=O)N12.Cl` (centres unmarked) [7-[2-(2-acetylamino-4-thiazolyl)-2-((Z)-methoxyimino)acetamido]-3-(methoxymethyl)-8-oxo-5-thia-1-azabicyclo[4.2.0]oct-2-ene-2-carboxylic acid 2-diethylaminoethyl ester hydrochloride], the “In vitro Penetration Rate (apparent flux), HPPs” value ([3]; human, 10 %) was 0.51 ± 0.03 mg/cm^2/h and the half-life at 9.1 mg/mL ([5]; human, plasma) was 8 min.
For `CCN(CC)CCOC(=O)C1N2C(=O)C(NC(=O)c3c(OC)cccc3OC)C2SC1(C)C.Cl` (centres unmarked) [methicillin-DEE, 6-(2,6-dimethoxybenzamido)penicillinic acid 2-diethylaminoethyl ester hydrochloride], the “Minimum inhibitory concentration, Candida albicans” value [8] was 16 mg/L, the “Bacteriological cure rate, E. coli” value [9] was 80% and the “Bacteriological cure, No. cured, E. coli” value [9] was 8. For the same molecule, the “Bacteriological cure rate, Enterobacteriaceae” value [10] was 75%, the “Bacteriological cure, No. cured, Enterobacteriaceae” value [10] was 6 and the “Bacteriological cure rate, Streptococcus uberis” value [11] was 70%. For the same molecule, the “Bacteriological cure, No. cured, Streptococcus uberis” value [11] was 7, the “Bacteriological cure rate, Staphylococcus aureus” value [12] was 80% and the “Bacteriological cure, No. cured, Staphylococcus aureus” value [12] was 4. The “Bacteriological cure rate, Coagulase-negative staphylococci” value [13] was 85.7%, the “Bacteriological cure, No. cured, Coagulase-negative staphylococci” value [13] was 6 and the “Minimum inhibitory concentration, Microsporum canis” value [14] was 8 mg/L. The “Minimum inhibitory concentration, Trichophyton mentagrophytes” value [15] was 22 mg/L, the “Minimum inhibitory concentration, Fusarium oxisporum” value [16] was 8 mg/L and the “Clinical Cure Rate, Day 3” value [17] was 43%. The “Clinical Cure Rate, Day 8” value [17] was 90%, the “Clinical Cure Rate, Day 15” value [17] was 97% and the “Clinical Cure Rate, Day 22” value [17] was 100%. The “Minimum inhibitory concentration, Aspergillus tereus” value [18] was 12 mg/L, the “Minimum inhibitory concentration, Aspergillus niger” value [19] was 9 mg/L and the “Half life of HPPs in plasma” value ([5]; human plasma, 37° C.) was 10 ± 1 min. For the same molecule, the “Minimum inhibitory concentration, Aspergillus nidulans” value [20] was 8 mg/L, the “Minimum inhibitory concentration, Penicillium carylophilium” value [21] was 9 mg/L and the “Minimum inhibitory concentration, Aspergillus giganteus” value [22] was 9 mg/L. For the same molecule, the “Minimum inhibitory concentration, Fusarium aquaductum” value [23] was 10 mg/L.
penicillin V [reference compound] gave an MIC [7] of 3524 mg/L.
Molecule `COc1cccc(OC)c1C(=O)NC1C(=O)N2C1SC(C)(C)C2C(=O)OCC1CCCN1.Cl` (centres unmarked) [methicillin-PME, 6-(2,6-dimethoxybenzamido)penicillinic acid 2-pyrrolidinemethyl ester hydrochloride] has an MIC [7] of 10 mg/L.
Molecule `CC1(C)SC2C(NC(=O)COc3ccccc3)C(=O)N2C1C(=O)OCCN1CCCCC1.Cl` (centres unmarked) [penicillin V-PEE, 6-phenoxyacetacetamidopenicillanic acid 1-piperidineethyl ester hydrochloride] has an MIC [7] of 1 mg/L.
In the case of `CCN(CC)CCOC(=O)C1N2C(=O)C(NC(=O)[C@H](NC(=O)N3CCN(CC)C(=O)C3=O)c3ccccc3)C2SC1(C)C.Cl` (stereo partly drawn) [6-D(−)-α-(4-ethyl-2,3-dioxo-1-piperazinylcarbonylamino)-α-phenylacetamidopenicillinic acid 2-diethylaminoethyl ester hydrochloride], the “In vitro Penetration Rate (apparent flux), HPPs” value [3] is reported as 0.74 ± 0.08 mg/cm^2/h and the “Half life of HPPs in plasma” value ([5]; human plasma, 37° C.) is reported as 15 ± 1 min.
With `CCN(CC)CCOC(=O)C1=C(COC(N)=O)CSC2N1C(=O)C2(NC(=O)Cc1cccs1)OC.Cl` (centres unmarked) [3-[[(aminocarbonyl)oxy]methyl]-7-methoxy-8-oxo-7-[(2-thienylacetyl)amino]-5-thia-1-azabicyclo[4.2.0]oct-2-ene-2-carboxylic acid 2-diethylaminoethyl ester hydrochloride] the “In vitro Penetration Rate (apparent flux), HPPs” value ([3]; human, 10 %) was 0.61 ± 0.05 mg/cm^2/h and the half-life at 9.1 mg/mL ([5]; human, plasma) was 7 min.
In the case of `CCN(CC)CCOC(=O)c1cn(CC)c2nc(C)ccc2c1=O.Cl` [nalidixic acid-DEE, 1-ethyl-7-methyl-4-oxo-[1,8]naphthyridine-3-carboxylic acid N,N-diethylaminoethyl ester•HCl salt], the “MIC, E. faecalis” value [1] is reported as 1 mg/L, the “MIC, S. aureus” value [2] is reported as 5 mg/L and the “In vitro Penetration Rate (apparent flux), HPPs of sulfonamides, sulfones, quinolones” value [3] is reported as 0.25 ± 0.04 mg/cm^2/h. The “MIC, E. coli” value [4] was 0.2 mg/L.
In the case of `CCN(CC)CCOC(=O)C1N2C(=O)C(NC(=O)C3C(c4ccccc4)=NOC3C)C2SC1(C)C.Cl` (centres unmarked) [6-(5-methyl-3-phenyl-2-isoxazoline-4-carboxamido)penicillinic acid 2-diethylaminoethyl ester hydrochloride], the “Half life of HPPs in plasma” value ([5]; human, plasma) is reported as 12 ± 1 min, the “Amount of parent drug found in Blood” value [6] is reported as 28 ± 5 µg/g and the “Amount of parent drug found in Brain” value [6] is reported as 8 ± 6 µg/g. The “Amount of parent drug found in Kidney” value [6] was 16 ± 5 µg/g, the “Amount of parent drug found in Liver” value [6] was 18 ± 7 µg/g and the “Amount of parent drug found in Muscel” value [6] was 22 ± 5 µg/g.
With `CCOC(=O)Cn1nnnc1SCC1=C(C(=O)OCCN(CC)CC)N2C(=O)C(NC(=O)Cc3ccccc3CNC(C)=O)C2SC1.Cl` (centres unmarked) [7-[[[2-(acetylaminomethyl)phenyl]acetyl]amino]-3-[[[1-(ethoxylcarbonylmethyl)-1H-tetrazol-5-yl]thio]methyl]-8-oxo-5-thia-1-azabicyclo[4.2.0]oct-2-ene-2-carboxylic acid 2-diethylaminoethyl ester hydrochloride] the “In vitro Penetration Rate (apparent flux), HPPs” value ([3]; human, 10 %) was 0.52 ± 0.04 mg/cm^2/h and the half-life at 9.1 mg/mL ([5]; human, plasma) was 9 min.
With `CO/N=C(\C(=O)N[C@@H]1C(=O)N2C(C(=O)O)=CCS[C@H]12)c1csc(N)n1` [Ceftizoxime, reference compound] the “In vitro Penetration Rate (apparent flux), Parent compounds” value ([3]; human, 10 %) was <0.010 mg/cm^2/h and the MIC [7, 24] was 2790 mg/L (≈ 7270 µM).
